# Several values for one entry are separate records, joined by “and”; a condition that tells them apart may be missing. Equal entries are not always repeated. Entries after “also recorded” stand apart in the source; their conditions may differ. Square brackets hold non-standard residues; d marks the D form. Peptide text beside a SMILES is read from it. * marks the point of attachment. Sta = CC(C)C[C@H](N)[C@@H](O)CC(=O)O; Isovaleryl = CC(C)CC(=O)*; Nle = CCCC[C@H](N)C(=O)O
# Target: TcpJ type 4 prepilin peptidase (TFPP) (Vibrio cholerae serotype O1, UniProt A5F385, P151Q/Q149P/S169T)
# Assay type: biochemical
Compound,% Cleavage,Effect on TcpJ peptidase activity (in words)
Cl.NCCc1ccc(S(=O)(=O)F)cc1 [Pefabloc SC],62% and 50%,partial effects
Aprotinin,100%,–
O=S(=O)(F)Cc1ccccc1 [PMSF],98% and 68%,partial effects
CC(C)CC(=O)N[C@H](C(=O)N[C@H](C(=O)N[C@@H](CC(C)C)[C@@H](O)CC(=O)N[C@@H](C)C(=O)N[C@@H](CC(C)C)[C@@H](O)CC(=O)O)C(C)C)C(C)C [Pepstatin] (Isovaleryl-VV[Sta]A[Sta]-OH),95% and 92% and 74%,complete insensitivity; also recorded: completely resistant
CCN1C(=O)C=CC1=O [NEM],30%,partial effects
CC(C)C[C@H](NP(=O)(O)O[C@@H]1O[C@@H](C)[C@H](O)[C@@H](O)[C@H]1O)C(=O)N[C@@H](Cc1c[nH]c2ccccc12)C(=O)O [Phosphoramidon],89%,–
CCCC[C@@H](C=O)NC(=O)[C@H](CC(C)C)NC(=O)[C@H](CC(C)C)NC(C)=O [Calpain inhibitor I] (Ac-Leu-Leu-[Nle]-aldehyde),87%,–
"O=c1oc(Cl)c(Cl)c2ccccc12 [3,4-DCI]",89% and 54%,–
CC(C)C[C@H](NC(=O)[C@@H](O)[C@H](N)Cc1ccccc1)C(=O)O [Bestatin],81%,–
CC(=O)N[C@@H](CC(C)C)C(=O)N[C@@H](CC(C)C)C(=O)N[C@H](C=O)CCCNC(=N)N [Leupeptin],85%,–

# From patent US8609087B2, “Compounds and methods for identifying compounds which inhibit a new class of aspartyl proteases” (priority 1999, dated 2013)
